In patent US20100317621A1, “BETA-LACTAMASE INHIBITORS” (priority 2007, published 2010):
pIC50: −log10 of the molar value. Counter-ions that a name gives are not always drawn. Like-named read-outs stand apart in the source and are kept apart here.

Key:
Assay in all cases: biochemical
[1] = target: T1, SHV-5 β-lactamase (Klebsiella pneumoniae, UniProt P0A3M1); assay type: biochemical, Escherichia coli
T1 construct: The β-lactamases were extracted by four cycles of freezing and thawing followed by centrifugation; endogenous in cells; host or cells: Escherichia coli cells containing SHV-5 (crude freeze-thaw extract)
T1 sequence (P0A3M1 22-286): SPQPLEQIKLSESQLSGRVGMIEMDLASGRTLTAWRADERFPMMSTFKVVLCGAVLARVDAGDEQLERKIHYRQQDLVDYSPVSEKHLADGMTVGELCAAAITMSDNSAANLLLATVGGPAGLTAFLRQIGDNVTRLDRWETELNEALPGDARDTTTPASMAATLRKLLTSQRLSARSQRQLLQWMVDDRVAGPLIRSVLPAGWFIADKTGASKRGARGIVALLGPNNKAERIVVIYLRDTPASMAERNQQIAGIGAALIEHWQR
Method: (§1) Isolation of β-lactamases. Crude β-lactamase extracts were prepared from 20 ml overnight cultures with shaking. Escherichia coli cells containing SHV-5 or CTXM-15 and Enterobacter cloacae cells containing P99 were further diluted 10-fold and grown to mid-log phase (OD at 600 nm, 0.5-0.8) in Mueller-Hinton II (MH-II) broth at 37° C. The cells were pelleted at 5000 g, washed and resuspended in 2 mL PBS pH 7.0. The β-lactamases were extracted by four cycles of freezing and thawing followed by centrifugation. β-lactamase activity in the extracts was measured with the chromogenic cephalosporin nitrocefin. The amount of protein in each β-lactamase preparation was determined by the bicinchoninic acid (BCA) assay.
(§2) β-lactamase Inhibition. To determine the level of inhibition of β-lactamase enzymes, compounds were diluted in PBS at pH 7.0 to yield concentrations between 100 and 0.005 μM in microtiter plates. An equal volume of diluted enzyme stock was added, and the plates were incubated at 37° C. for 10 min. Nitrocefin solution was then dispensed as substrate into each well at a final concentration of 100 μM, and the plates were immediately read with the kinetic program at 486 nm for 10 min on the SPECTRAMAX® Plus^384 (high-throughput microplate spectrophotometer; Molecular Devices Corp., Sunnyvale, Calif.). Maximum rates of metabolism were then compared to those in control wells (without inhibitors), and percentages of enzyme inhibition were calculated for each concentration of inhibitor. The concentration of inhibitor needed to reduce the initial rate of hydrolysis of substrate by 50% (IC50) was calculated as the residual activity of β-lactamase at 486 nm using the SoftMax Pro 5.0 software (Molecular Devices Corp.).

[2] = target: T2, CTXM-15 β-lactamase (Escherichia coli, UniProt Q9EXV5); assay type: biochemical; conditions: crude enzyme extract, 10 min preincubation at 37° C., nitrocefin 100 μM, PBS pH 7.0; read-out: CTXM-15 IC50 Range
T2 construct: The β-lactamases were extracted by four cycles of freezing and thawing followed by centrifugation; endogenous in cells; host or cells: Escherichia coli cells containing CTXM-15 (crude freeze-thaw extract)
T2 sequence (Q9EXV5 29-291): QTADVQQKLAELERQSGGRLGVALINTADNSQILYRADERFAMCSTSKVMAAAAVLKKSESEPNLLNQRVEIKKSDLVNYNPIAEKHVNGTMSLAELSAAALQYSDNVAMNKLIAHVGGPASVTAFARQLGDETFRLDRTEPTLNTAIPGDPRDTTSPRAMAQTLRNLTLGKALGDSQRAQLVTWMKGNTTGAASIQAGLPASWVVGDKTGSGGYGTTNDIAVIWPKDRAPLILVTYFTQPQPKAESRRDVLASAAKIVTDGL
Method: as §1, §2

[3] = target: T3, P99 AmpC β-lactamase (Enterobacter cloacae, UniProt P05364); assay type: biochemical
T3 construct: The β-lactamases were extracted by four cycles of freezing and thawing followed by centrifugation; endogenous in cells; host or cells: Enterobacter cloacae cells containing P99 (crude freeze-thaw extract)
T3 sequence (P05364 21-381): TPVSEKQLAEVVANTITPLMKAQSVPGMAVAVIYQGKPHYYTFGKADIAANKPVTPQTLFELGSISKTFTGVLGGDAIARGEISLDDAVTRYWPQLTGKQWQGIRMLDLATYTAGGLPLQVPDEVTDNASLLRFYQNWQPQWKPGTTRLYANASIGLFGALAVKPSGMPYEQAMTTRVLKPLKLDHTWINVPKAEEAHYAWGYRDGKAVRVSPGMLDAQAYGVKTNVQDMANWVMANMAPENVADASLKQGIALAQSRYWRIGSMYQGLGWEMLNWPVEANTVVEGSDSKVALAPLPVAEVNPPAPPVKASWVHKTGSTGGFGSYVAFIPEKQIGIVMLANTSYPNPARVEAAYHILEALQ
Method: as §1, §2

[4] = crude enzyme extract, 10 min preincubation at 37° C., nitrocefin 100 μM, PBS pH 7.0, read-out: SHV-5 IC50 Range
[5] = crude enzyme extract, 10 min preincubation at 37° C., nitrocefin 100 μM, PBS pH 7.0, read-out: P99 AmpC IC50 Range

| Structure (SMILES) | pIC50 [1, 4] | pIC50 [2] | pIC50 [3, 5] | pIC50 [1] | pIC50 [3] |
| --- | --- | --- | --- | --- | --- |
| O=C(Cc1cccc(Cl)c1)N[C@@H](Cc1cccc(C(=O)O)c1)B(O)O [Example 3, (1R)-1-(3-Chlorophenylacetylamino)-2-(3-carboxyphenyl)ethyl-1-boronic acid] | > 7.00 | > 7.00 | 6.00 to 7.00 | – | – |
| COc1ccc(OC)c(CC(=O)N[C@@H](Cc2cccc(C(=O)O)c2)B(O)O)c1 [Example 4, (1R)-1-(2,5-Dimethoxyphenylacetylamino)-2-(3-carboxyphenyl)ethyl-1-boronic acid] | < 6.00 | – | 6.00 to 7.00 | – | – |
| O=C(CC1CCCCC1)N[C@@H](Cc1cccc(C(=O)O)c1)B(O)O [Example 5, (1R)-1-(Cyclohexylacetylamino)-2-(3-carboxyphenyl)ethyl-1-boronic acid] | < 6.00 | – | < 6.00 | – | – |
| O=C(Cc1cc(F)ccc1F)N[C@@H](Cc1cccc(C(=O)O)c1)B(O)O [Example 6, (1R)-1-(2,5-Difluorophenylacetylamino)-2-(3-carboxyphenyl)ethyl-1-boronic acid] | > 7.00 | – | 6.00 to 7.00 | – | – |
| O=C(Cc1cccc(Br)c1)N[C@@H](Cc1cccc(C(=O)O)c1)B(O)O [Example 7, (1R)-1-(3-Bromophenylacetylamino)-2-(3-carboxyphenyl)ethyl-1-boronic acid] | 6.00 to 7.00 | – | 6.00 to 7.00 | – | – |
| O=C(Cc1cccc(C(F)(F)F)c1)N[C@@H](Cc1cccc(C(=O)O)c1)B(O)O [Example 8, (1R)-1-(3-Trifluoromethylphenylacetylamino)-2-(3-carboxyphenyl)ethyl-1-boronic acid] | 6.00 to 7.00 | 6.00 to 7.00 | < 6.00 | – | – |
| O=C(Cc1ccc(C(F)(F)F)cc1)N[C@@H](Cc1cccc(C(=O)O)c1)B(O)O [Example 9, (1R)-1-(4-Trifluoromethylphenylacetylamino)-2-(3-carboxyphenyl)ethyl-1-boronic acid] | > 7.00 | > 7.00 | 6.00 to 7.00 | – | – |
| O=C(CCc1cccs1)N[C@@H](Cc1cccc(C(=O)O)c1)B(O)O [Example 10, (1R)-1-(3-thiophene-2-yl-propionylamino)-2-(3-carboxyphenyl)ethyl-1-boronic acid] | < 6.00 | 6.00 to 7.00 | < 6.00 | – | – |
| Cc1ccc(C(=O)O)cc1C[C@H](NC(=O)Cc1cccs1)B(O)O [Example 13, (1R)-1-(2-thiophene-2-yl-acetylamino)-2-(5-carboxy-2-methylphenyl)ethyl-1-boronic acid] | > 7.00 | 6.00 to 7.00 | < 6.00 | – | – |
| Cn1c(CC(=O)N[C@@H](Cc2cccc(C(=O)O)c2)B(O)O)cc2ccccc21 [Example 14] | > 7.00 | 6.00 to 7.00 | 6.00 to 7.00 | – | – |
| O=C(Cc1cccc2ccccc12)N[C@@H](Cc1cccc(C(=O)O)c1)B(O)O [Example 15, (1R)-1-(2-naphthalen-1-yl-acetylamino)-2-(3-carboxyphenyl)ethyl-1-boronic acid] | < 6.00 | – | < 6.00 | – | – |
| O=C(Cc1ccc(Br)cc1)N[C@@H](Cc1cccc(C(=O)O)c1)B(O)O [Example 16, (1R)-1-(4-Bromophenylacetylamino)-2-(3-carboxyphenyl)ethyl-1-boronic acid] | 6.00 to 7.00 | – | < 6.00 | – | – |
| O=C(Cc1cccc(C(=O)O)c1)N[C@@H](Cc1cccc(C(=O)O)c1)B(O)O [Example 17, (1R)-1-(3-Carboxyphenylacetylamino)-2-(3-carboxyphenyl)ethyl-1-boronic acid] | 6.00 to 7.00 | – | < 6.00 | – | – |
| O=C(Cc1cccs1)N[C@@H](Cc1ccc(Cl)c(C(=O)O)c1)B(O)O [Example 18, (1R)-1-(2-thiophene-2-yl-acetylamino)-2-(3-carboxy-4-chlorophenyl)ethyl-1-boronic acid] | > 7.00 | – | 6.00 to 7.00 | – | – |
| O=C(Cc1ccc(Cl)cc1)N[C@@H](Cc1cccc(C(=O)O)c1)B(O)O [Example 19, (1R)-1-(4-Chlorophenylacetylamino)-2-(3-carboxyphenyl)ethyl-1-boronic acid] | > 7.00 | > 7.00 | 6.00 to 7.00 | – | – |
| O=C(Cc1ccccc1Br)N[C@@H](Cc1cccc(C(=O)O)c1)B(O)O [Example 20, (1R)-1-(2-Bromophenylacetylamino)-2-(3-carboxyphenyl)ethyl-1-boronic acid] | 6.00 to 7.00 | – | 6.00 to 7.00 | – | – |
| O=C(Cc1ccc2ccccc2c1)N[C@@H](Cc1cccc(C(=O)O)c1)B(O)O [Example 23, (1R)-1-(2-naphthalen-2-yl-acetylamino)-2-(3-carboxyphenyl)ethyl-1-boronic acid] | > 7.00 | > 7.00 | > 7.00 | – | – |
| O=C(Cc1ccccc1Cl)N[C@@H](Cc1cccc(C(=O)O)c1)B(O)O [Example 24, (1R)-1-(2-Chlorophenylacetylamino)-2-(3-carboxyphenyl)ethyl-1-boronic acid] | > 7.00 | < 6.00 | 6.00 to 7.00 | – | – |
| COc1ccc(CC(=O)N[C@@H](Cc2cccc(C(=O)O)c2)B(O)O)cc1 [Example 25, (1R)-1-(4-Methoxyphenylacetylamino)-2-(3-carboxyphenyl)ethyl-1-boronic acid] | > 7.00 | > 7.00 | 6.00 to 7.00 | – | – |
| COc1ccc(CC(=O)N[C@@H](Cc2cccc(C(=O)O)c2)B(O)O)c(Br)c1 [Example 26, (1R)-1-(2-Bromo-4-methoxyphenylacetylamino)-2-(3-carboxyphenyl)ethyl-1-boronic acid] | 6.00 to 7.00 | 6.00 to 7.00 | 6.00 to 7.00 | – | – |
| O=C(O)COc1cccc(CC(=O)N[C@@H](Cc2cccc(C(=O)O)c2)B(O)O)c1 [Example 27, (1R)-1-(2-(3-carboxymethoxy)phenylacetylamino)-2-(3-carboxyphenyl)ethyl-1-boronic acid] | > 7.00 | 6.00 to 7.00 | 6.00 to 7.00 | – | – |
| CN1CCC(Oc2cccc(CC(=O)NC(Cc3cccc(C(=O)O)c3)B(O)O)c2)C1 [Example 28, (1R)-1-(2-[3-(1-methyl-pyrrolidin-3-yloxy)-phenyl]-acetylamino)-2-(3-carboxyphenyl)ethyl-1-boronic acid] | – | 6.00 to 7.00 | – | 6.00 to 7.00 | > 7.00 |
| NCCCOc1cccc(CC(=O)N[C@@H](Cc2cccc(C(=O)O)c2)B(O)O)c1 [Example 31, (1R)-1-{2-[3-(3-Amino-propyloxy)-phenyl]-acetylamino}-2-(3-carboxyphenyl)ethyl-1-boronic acid hydrochloride] | 6.00 to 7.00 | 6.00 to 7.00 | 6.00 to 7.00 | – | – |
| CC(CO)Oc1cccc(CC(=O)N[C@@H](Cc2cccc(C(=O)O)c2)B(O)O)c1 (stereo partly drawn) [Example 32, (1R)-1-{2-[3-(2-Hydroxy-1-methyl-ethoxy)-phenyl]-acetylamino}-2-(3-carboxyphenyl)ethyl-1-boronic acid] | > 7.00 | > 7.00 | 6.00 to 7.00 | – | – |
| O=C(CCCc1cccs1)N[C@@H](Cc1cccc(C(=O)O)c1)B(O)O [Example 35, (1R)-1-(4-Thiophen-2-yl-butyrylamino)-2-(3-carboxyphenyl)ethyl-1-boronic acid] | 6.00 to 7.00 | 6.00 to 7.00 | < 6.00 | – | – |
| O=C(CCC(=NO)c1cccs1)N[C@@H](Cc1cccc(C(=O)O)c1)B(O)O [Example 37, (1R)-1-(4-Hydroxyimino-4-thiophen-2-yl-butyrylamino)-2-(3-carboxyphenyl)ethyl-1-boronic acid] | < 6.00 | 6.00 to 7.00 | 6.00 to 7.00 | – | – |
| COc1ccc(C(=O)CCC(=O)N[C@@H](Cc2cccc(C(=O)O)c2)B(O)O)cc1 [Example 38, (1R)-1-(4-(4-Methoxy-phenyl)-4-oxo-butyrylamino)-2-(3-carboxyphenyl)ethyl-1-boronic acid] | 6.00 to 7.00 | 6.00 to 7.00 | 6.00 to 7.00 | – | – |
